Patent US20260234165A1, “MACROCYCLIC COMPOUNDS, PREPARATION METHOD THEREFOR, AND USE THEREOF” (GENFLEET THERAPEUTICS (SHANGHAI) INC., priority 2004, published 2026)
Read-outs that look alike come from different tables or passages of the source.

Experiments:
Assay type in all cases: cell-based, human
[1] = test system: NCI-H441 cells; assay: 3D cell proliferation assay (CellTiter Glo-3D), NCI-H441; details: medium with 2% FBS, read-out: H441 AP IC50
Procedure, shortened: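 Cells were seeded at 800 per well in RPMI-1640 containing 2% FBS and left overnight. Compounds in 3.16-fold dilution series were then added at 0.1% DMSO and incubated 5 days at 37 °C. Viability was read by CellTiter-Glo 3D luminescence and IC50 values fitted by four-parameter regression.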

[2] = test system: p-ERK in NCI-H441 cells (KRAS G12V mutation); assay: Cell p-ERK assay (HTRF) in NCI-H441 cells; details: NCI-H441 cells, 3 h compound incubation, HTRF p-ERK T202/Y204, read-out: H441 p-ERK IC50
Procedure, shortened: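 AsPC-1 (10000/well) or NCI-H441 (20000/well) cells were seeded in RPMI-1640 with 10% FBS, grown overnight, then exposed to 3.16-fold compound dilutions (0.1% DMSO) for 3 h at 37 °C. Lysates were read for phospho-ERK T202/Y204 by HTRF; IC50 came from four-parameter fits of inhibition versus DMSO and blank wells.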

[3] = test system: AsPC-1 cells (KRAS G12D mutation); assay: 3D cell proliferation assay (CellTiter Glo-3D), AsPC-1; details: medium with 2% FBS, read-out: AsPC-1 AP IC50
Source text: MIA PaCa-2 cells were purchased from ATCC, Cat. No. CRL-1420; AsPC-1 cells were purchased from ATCC, Cat. No. CRL-1682; NCI-H441 cells were purchased from ATCC, Cat. No. HTB-174: NCI-H1975 cells were purchased from ATCC. Cat. No. CRL-5908; DMEM medium was purchased from Gibco, Cat. No. 11995-065: RPMI-1040 medium was purchased from Gibco. Cat. No. H 18754093; FBS was purchased from Gibco, Cat. No. 10099-141C. penicillin, streptomycin double-antibiotic solution (PS) was purchased from Gibco, Cat. No. 15140-122; Horse serum was purchased from Gibco. Cat. No. 16050130: trypsin (containing EDTA) was purchased from Gibco, Cat. No. 25200-072; DMSO was purchased from VWRAMRESCO, Cat. No. 0231-500ML; 384-well cell culture plates were purchased from Corning, Cat. No. 3830; white-bottomed, opaque 384-well assay plates were purchased from Corning, Cat. No. 3570. CellTiter Glo-3D) kit was purchased from Promega. Cat. No. G9683; cell counter was purchased from CHEMOMETEC, model: NC-200: microplate reader was purchased from PerkinElmer, model: EnVision.
MIA PaCa-2, a human pancreatic cancer cell strain endogenously containing a KRAS^G12C mutation, was cultured in a complete medium containing DMEM+10% FBS+2.5% Horse serum+1% PS. AsPC-1, a human pancreatic cancer cell strain endogenously containing a […] mutation, was cultured in a complete medium containing RPMI-1640+10% FBS+1% PS. NCI-H441 cells, a human lung cancer cell strain endogenously containing a […] mutation, were cultured in a complete medium containing RPMI-1640+10% FBS+1% PS. NCI-H1975, a KRAS wild-type human lung cancer cell strain whose cell proliferation depends on KRAS activity, was cultured in a complete medium containing RPMI-1640+10% FBS+1% PS.
The cells were digested with trypsin (containing EDTA), collected in their respective low-serum complete media containing 2% FBS (for MIA Paca-2 cell culture: DMEM+2% FBS+0.5% Horse serum+1% PS), and counted. After the cell density was adjusted as required, 200 MIA PaCa-2 cells, 800 AsPC-1 cells, 800 NCI-H441 cells, or 400 NCI-H1975 cells per well were seeded into a 384-well cell culture plate, with the volume of the medium in each well being 45 μL. The cell culture plate was incubated in an incubator at 37° C. with 5% CO2, overnight. A series of 3.16-fold gradient dilutions of a 1000× compound stock solution were prepared with DMSO, and then diluted 100-fold with the complete medium containing 2% FBS described above to give 10- compound stock solutions. On the day after cell seeding, 5 μL of the 10- compound stock solution was added to each cell culture well. As a result, the final concentration of the compound in the cell culture well became 1×, and the DMSO content in the well was 0.1%. In addition to the compound-treated wells described above, cell-containing DMSO control wells (with 5 μL of the complete medium containing 1% DMSO added to each well) and cell-free medium control wells (containing 50 μL of the complete medium with 2% FBS) were also set. The culture plate was incubated in an incubator at 37° C. with 5% CO2 for another 5 days, and then 30 μL of CellTiter-Glo working solution was added to each well. The mixture was well mixed, incubated for 30 min, left to stand at room temperature for 30 min, and then transferred to a white-bottomed, opaque 384-well assay plate at 40 μL/well. The chemiluminescence values (RLU) were measured using a microplate reader, and the cell proliferation inhibition rate for each well was calculated: IR (%)=(RLUDMSO—RLUcompound)/(RLUDMSO−RLUblank)×100%, where RLUDMSO is the average RLU signal value from the DMSO control well samples, RLUblank is the average RLU signal value from the medium control well samples, and RLUcompound is the RLU signal value from the compound-treated well samples. […]

[4] = Homo sapiens, NCI-H441, 3D cell proliferation (CellTiter Glo-3D)
[5] = Homo sapiens, ASPC1, 3D cell proliferation (CellTiter Glo-3D)
[6] = 3D cell proliferation (CellTiter Glo-3D)

Compound | IC50 [1, 4] | IC50 ([2]; Homo sapiens, NCI-H441, 3 h) | IC50 [3, 5] | IC50 [1, 6] | IC50 [3, 6] | IC50 [2]
CCn1c(-c2cc(C#CCN3CCCOCC3)cnc2[C@H](C)OC)c2c3cc(ccc31)-c1csc(n1)C[C@H](Nc1nnc3cc(C)ccn13)C(=O)N1CCC[C@H](N1)C(=O)OCC(C)(C)C2 [Compound Z955, (6^3S,4S2)-1^2-(5-(3-(1,4-oxazepan-4-yl)prop-1-yn-1-yl)-2-((S)-1-methoxyethyl)pyridin-3-yl)-1^1-ethyl-10,10-dimethyl-4-((7-methyl-[1,2,4]triazolo[4,3-a]pyridin-3-yl)amino)-6^1,6^2,6^3,6^4,6^5,6^6-hexahydro-1^1H-8-oxa-2(4,2)-thiazola-1(5,3)-indola-6(1,3)-pyridazinacycloundecaphane-5J7-dione] | 2.96 nM | 2.6 nM | 4.82 nM |  |  | 
CCn1c(-c2cc(C#CC34CCCN3CCC4)cnc2[C@H](C)OC)c2c3cc(ccc31)-c1csc(n1)C[C@H](NC(=O)[C@H]1[C@H](C)[C@@H]1C)C(=O)N1CCC[C@H](N1)C(=O)OCC(C)(C)C2 (atropisomer, axis not shown; (Ra)) [Compound Z794, (1r,2R,3S)—N-((6^3S,4S,Z)—(Ra)-1^2-ethyl-1^2-(2-((S)-1-methoxyethyl)-5-((tetrahydro-1H-pyrrolizin-7a(5H)-yl)ethynyl)pyridin-3-yl)-10,10-dimethyl-5,7-dioxo-6^1,6^2,6^3,6^4,6^5,6^6-hexahydro-1^1H-8-oxa-2(4,2)-thiazola-1(5,3)-indola-6(1,3)-pyridazinacycloundecaphane-4-yl)-2,3-dimethylcyclopropane-1-carboxamide] | 0.66 nM | 0.49 nM | 2.07 nM |  |  | 
CCn1c(-c2cc(C#CCN3CCC(F)(F)CC3)cnc2[C@H](C)OC)c2c3cc(ccc31)-c1csc(n1)C[C@H](Nc1nnc3cc(C)ccn13)C(=O)N1CCC[C@H](N1)C(=O)OCC(C)(C)C2 (atropisomer, axis not shown; (Ra)) [Compound Z958, (6^3S,4S,Z)—(Ra)-1-(5-(3-(4,4-difluoropiperidin-1-yl)prop-1-yn-1-yl)-2-((S)-1-methoxyethyl)pyridin-3-yl)-1^1-ethyl-10,10-dimethyl-4-((7-methyl-[1,2,4]triazolo[4,3-a]pyridin-3-yl)amino)-6^1,6^2,6^3,6^4,6^5,6^6-hexahydro-1^1H-8-oxa-2(4,2)-thiazola-1(5,3)-indola-6(1,3)-pyridazinacycloundecaphane-5,7-dione] | 4.93 nM | 5.78 nM | 6.12 nM |  |  | 
CCn1c(-c2cccnc2[C@H](C)OC)c2c3cc(ccc31)-c1csc(n1)C[C@H](NC(=O)C(C)(C)F)C(=O)N1CCC[C@H](N1)C(=O)OCC(C)(C)C2 (single isomer, unassigned) [Compound Z1] | 446 nM |  | 565 nM |  |  | 
CCn1c(-c2cc(C#CCN3CC(C#N)C3)cnc2[C@H](C)OC)c2c3cc(ccc31)-c1csc(n1)C[C@H](Nc1nnc3cc(C)ccn13)C(=O)N1CCC[C@H](N1)C(=O)OCC(C)(C)C2 (atropisomer, axis not shown; (Ra)) [Compound Z974, 1-(3-(5-((6^3S,4S,Z)-1^1-ethyl-10,10-dimethyl-4-((7-methyl-[1,2,4]triazolo[4,3-a]pyridin-3-yl)amino)-5,7-dioxo-6^1,6^2,6^3,6^4,6^5,6^6-hexahydro-1^1H-8-oxa-2(4,2)-thiazola-1(5,3)-indola-6(1,3)-pyridazinacycloundecaphane-1^2-yl)-6-(Ra)—((S)-1-methoxyethyl)pyridin-3-yl)prop-2-yn-1-yl)azetidine-3-carbonitrile] | 3.46 nM | 2.12 nM | 5.6 nM |  |  | 
CCn1c(-c2cc(N3CCN(C)CC3)cnc2[C@H](C)OC)c2c3cc(ccc31)-c1csc(n1)C[C@H](Nc1ccccn1)C(=O)N1CCC[C@H](N1)C(=O)OCC(C)(C)C2 (atropisomer, axis not shown; (Ra)) [Compound Z69, (6^3S,Z)-1^1-ethyl-(Ra)-1^2-(2-((S)-1-methoxyethyl)-5-(4-methylpiperazin-1-yl)pyridin-3-yl)-10,10-dimethyl-4-(pyridin-2-ylamino)-6^1,6^2,6^3,6^4,6^5,6^6-hexahydro-1^1H-8-oxa-2(4,2)-thiazola-1(5,3)-indola-6(1,3)-pyridazinacycloundecaphane-5,7-dione] |  |  |  | 399 nM | 347 nM | 
CCn1c(-c2cc(C(C)N3CCN(C)CC3)cnc2[C@H](C)OC)c2c3cc(ccc31)-c1csc(n1)C[C@H](NC(=O)[C@H]1[C@H](C)[C@@H]1C)C(=O)N1CCC[C@H](N1)C(=O)OCC1(CC1)C2 (stereo partly drawn) [Compound Z456] |  |  |  | 125 nM | 151 nM | 61.3 nM
CCn1c(-c2cc(C#CCN3CCC(=O)N(C)CC3)cnc2[C@H](C)OC)c2c3cc(ccc31)-c1csc(n1)C[C@H](Nc1nnc3cc(C)ccn13)C(=O)N1CCC[C@H](N1)C(=O)OCC(C)(C)C2 (atropisomer, axis not shown; (Ra)) [Compound Z957, (6^3S,4S2)-1-(5-(3-(4-methyl-1,4-diazepan-5-one-1-yl)prop-1-yn-1-yl)-(Ra)-2-((S)-1-methoxyethyl)pyridin-3-yl)-1^1-ethyl-10,10-dimethyl-4-((7-methyl-[,2,4]triazolo[4,3-a]pyridin-3-yl)amino)-6^1,6^2,6^3,6^4,6^5,6^6-hexahydro-1^1H-8-oxa-2(4,2)-thiazola-1(5,3)-indola-6(1,3)-pyridazinacycloundecaphane-5,7-dione] |  |  |  | 2.47 nM | 6.69 nM | 2.63 nM
CO[C@@H](C)c1ncc(C#CCN2CCS(=O)(=O)CC2)cc1-c1c2c3cc(ccc3n1C(C)C)-c1csc(n1)C[C@H](Nc1nnc3cc(C)ccn13)C(=O)N1CCC[C@H](N1)C(=O)OCC(C)(C)C2 (atropisomer, axis not shown; (Ra)) [Compound Z913-1, (6^3S,4S,Z)—(Ra)-1^1-(5-(3-(1,1-dioxidothiomorpholino)prop-1-yn-1-yl)-2-((S)-1-methoxyethyl)pyridin-3-yl)-1′-isopropyl-10,10-dimethyl-4-((7-methyl-[1,2,4]triazolo[4,3-a]pyridin-3-yl)amino)-6^1,6^2,6^3,6^4,6^5,6^6-hexahydro-1^1H-8-oxa-2(4,2)-thiazola-1(5,3)-indola-6(1.3)-pyridazinacycloundecaphane-5,7-dione] | 4.18 nM |  | 8.88 nM |  |  | 
